Reference: ChEMBL document CHEMBL3885861, “Open TG-GATES”

Organism: Rattus norvegicus
Assay: Open TG-GATES - Regimen: Daily Repeat
Assay type: toxicity, organism-based, Sprague-Dawley
Design: regimen Daily Repeat, gender Male, age 6 weeks
Settings: in vivo, po, 0 mg/kg, route gavage, dose level Control; for APTT / Bas / Eos / Fbg / Hb / Ht / Lym / MCH / MCHC / MCV / Mono / Neu / PT / Plat / RBC / Ret / WBC: tissue Blood; for KIDNEY_TOTAL: tissue Kidney; for LIVER: tissue Liver; for A/G / ALP / ALT / AST / BUN / CRE / Ca / Cl / DBIL / GLC / IP / K / LDH / Na / PL / RALB / TBIL / TC / TG / TP / gamma-GTP: tissue Plasma

CN(CCOc1ccc(CC2SC(=O)NC2=O)cc1)c1ccccn1.O=C(O)/C=C\C(=O)O (centres undefined) [ROSIGLITAZONE MALEATE]
TERMINAL_BW (72 h, time 3 day): 242.8 g | APTT (72 h, time 3 day): 15.5 s | Bas (72 h, time 3 day): 0% | Eos (72 h, time 3 day): 1.2% | Fbg (72 h, time 3 day): 236.8 mg/dL | Hb (72 h, time 3 day): 13 g/dL | Ht (72 h, time 3 day): 39.2% | Lym (72 h, time 3 day): 76.6% | MCH (72 h, time 3 day): 21.1 pg | MCHC (72 h, time 3 day): 33% | MCV (72 h, time 3 day): 63.9 fL | Mono (72 h, time 3 day): 5.2% | Neu (72 h, time 3 day): 17.4% | PT (72 h, time 3 day): 11.5 s | Plat (72 h, time 3 day): 136 x10_4/uL | RBC (72 h, time 3 day): 615.6 x10_4/ul | Ret (72 h, time 3 day): 6.6% | WBC (72 h, time 3 day): 98 x10_2/uL | KIDNEY_TOTAL (72 h, time 3 day): 0.8 g | LIVER (72 h, time 3 day): 12.6 g | A/G (72 h, time 3 day): 2.2 | ALP (72 h, time 3 day): 1243.6 IU/L | ALT (72 h, time 3 day): 35.6 IU/L | AST (72 h, time 3 day): 62.6 IU/L | BUN (72 h, time 3 day): 14.8 mg/dL | CRE (72 h, time 3 day): 0.2 mg/dL | Ca (72 h, time 3 day): 11.7 mg/dL | Cl (72 h, time 3 day): 104.2 meq/L | DBIL (72 h, time 3 day): 0.014 mg/dL | GLC (72 h, time 3 day): 197.6 mg/dL | IP (72 h, time 3 day): 6.9 mg/dL | K (72 h, time 3 day): 4.7 meq/L | LDH (72 h, time 3 day): 96.2 IU/L | Na (72 h, time 3 day): 140.4 meq/L | PL (72 h, time 3 day): 154.8 mg/dL | RALB (72 h, time 3 day): 3.9 g/dL | TBIL (72 h, time 3 day): 0.04 mg/dL | TC (72 h, time 3 day): 83.4 mg/dL | TG (72 h, time 3 day): 105.8 mg/dL | TP (72 h, time 3 day): 5.8 g/dL | gamma-GTP (72 h, time 3 day): 0.2 IU/L | TERMINAL_BW ([…], time 7 day): 274.1 g | TERMINAL_BW ([…], time 14 day): 332.1 g | TERMINAL_BW ([…], time 28 day): 412.9 g | APTT ([…], time 7 day): 16.1 s | Bas ([…], time 7 day): 0% | Eos ([…], time 7 day): 1% | Fbg ([…], time 7 day): 242.4 mg/dL | Hb ([…], time 7 day): 13.4 g/dL | Ht ([…], time 7 day): 40.5% | Lym ([…], time 7 day): 82% | MCH ([…], time 7 day): 20.8 pg | MCHC ([…], time 7 day): 33% | MCV ([…], time 7 day): 63 fL | Mono ([…], time 7 day): 4.4% | Neu ([…], time 7 day): 12.8% | PT ([…], time 7 day): 11.7 s | Plat ([…], time 7 day): 134.6 x10_4/uL | RBC ([…], time 7 day): 643.8 x10_4/ul | Ret ([…], time 7 day): 4.6% | WBC ([…], time 7 day): 98.6 x10_2/uL | APTT ([…], time 14 day): 15.7 s | Bas ([…], time 14 day): 0% | Eos ([…], time 14 day): 1% | Fbg ([…], time 14 day): 247.4 mg/dL | Hb ([…], time 14 day): 14 g/dL | Ht ([…], time 14 day): 42.3% | Lym ([…], time 14 day): 74.4% | MCH ([…], time 14 day): 20.6 pg | MCHC ([…], time 14 day): 33% | MCV ([…], time 14 day): 62.2 fL | Mono ([…], time 14 day): 6% | Neu ([…], time 14 day): 18.6% | PT ([…], time 14 day): 11.5 s | Plat ([…], time 14 day): 126.2 x10_4/uL | RBC ([…], time 14 day): 680.2 x10_4/ul | Ret ([…], time 14 day): 3.6% | WBC ([…], time 14 day): 124.2 x10_2/uL | APTT ([…], time 28 day): 16 s | Bas ([…], time 28 day): 0% | Eos ([…], time 28 day): 1% | Fbg ([…], time 28 day): 242.4 mg/dL | Hb ([…], time 28 day): 14.6 g/dL | Ht ([…], time 28 day): 44% | Lym ([…], time 28 day): 75.2% | MCH ([…], time 28 day): 19.5 pg | MCHC ([…], time 28 day): 33.2% | MCV ([…], time 28 day): 58.9 fL | Mono ([…], time 28 day): 7.6% | Neu ([…], time 28 day): 16.4% | PT ([…], time 28 day): 11.7 s | Plat ([…], time 28 day): 120.2 x10_4/uL | RBC ([…], time 28 day): 747.6 x10_4/ul | Ret ([…], time 28 day): 2.6% | WBC ([…], time 28 day): 114.8 x10_2/uL | KIDNEY_TOTAL ([…], time 7 day): 0.7 g | KIDNEY_TOTAL ([…], time 14 day): 0.9 g | KIDNEY_TOTAL ([…], time 28 day): 0.9 g | LIVER ([…], time 7 day): 12.9 g | LIVER ([…], time 14 day): 15.7 g | LIVER ([…], time 28 day): 17.1 g | A/G ([…], time 7 day): 2 | ALP ([…], time 7 day): 1306.8 IU/L | ALT ([…], time 7 day): 33.2 IU/L | AST ([…], time 7 day): 58.8 IU/L | BUN ([…], time 7 day): 18.2 mg/dL | CRE ([…], time 7 day): 0.5 mg/dL | Ca ([…], time 7 day): 19.5 mg/dL | Cl ([…], time 7 day): 104.8 meq/L | DBIL ([…], time 7 day): 0.01 mg/dL | GLC ([…], time 7 day): 181.4 mg/dL | IP ([…], time 7 day): 7.1 mg/dL | K ([…], time 7 day): 4.5 meq/L | LDH ([…], time 7 day): 79 IU/L | Na ([…], time 7 day): 140 meq/L | PL ([…], time 7 day): 148.6 mg/dL | RALB ([…], time 7 day): 3.8 g/dL | TBIL ([…], time 7 day): 0.028 mg/dL | TC ([…], time 7 day): 76.6 mg/dL | TG ([…], time 7 day): 138.8 mg/dL | TP ([…], time 7 day): 5.7 g/dL | gamma-GTP ([…], time 7 day): 0.2 IU/L | A/G ([…], time 14 day): 2.1 | ALP ([…], time 14 day): 1411 IU/L | ALT ([…], time 14 day): 32.8 IU/L | AST ([…], time 14 day): 62.4 IU/L | BUN ([…], time 14 day): 19 mg/dL | CRE ([…], time 14 day): 0.4 mg/dL | Ca ([…], time 14 day): 11.1 mg/dL | Cl ([…], time 14 day): 106 meq/L | DBIL ([…], time 14 day): 0.01 mg/dL | GLC ([…], time 14 day): 186.4 mg/dL | IP ([…], time 14 day): 7.2 mg/dL | K ([…], time 14 day): 4.5 meq/L | LDH ([…], time 14 day): 65 IU/L | Na ([…], time 14 day): 143 meq/L | PL ([…], time 14 day): 159.4 mg/dL | RALB ([…], time 14 day): 3.9 g/dL | TBIL ([…], time 14 day): 0.036 mg/dL | TC ([…], time 14 day): 76.4 mg/dL | TG ([…], time 14 day): 186.4 mg/dL | TP ([…], time 14 day): 5.8 g/dL | gamma-GTP ([…], time 14 day): 1 IU/L | A/G ([…], time 28 day): 1.9 | ALP ([…], time 28 day): 1035.6 IU/L | ALT ([…], time 28 day): 29.2 IU/L | AST ([…], time 28 day): 55 IU/L | BUN ([…], time 28 day): 18.4 mg/dL | CRE ([…], time 28 day): 0.4 mg/dL | Ca ([…], time 28 day): 10.7 mg/dL | Cl ([…], time 28 day): 105 meq/L | DBIL ([…], time 28 day): 0.012 mg/dL | GLC ([…], time 28 day): 183 mg/dL | IP ([…], time 28 day): 6.1 mg/dL | K ([…], time 28 day): 4.4 meq/L | LDH ([…], time 28 day): 68.8 IU/L | Na ([…], time 28 day): 139.8 meq/L | PL ([…], time 28 day): 144.8 mg/dL | RALB ([…], time 28 day): 3.9 g/dL | TBIL ([…], time 28 day): 0.036 mg/dL | TC ([…], time 28 day): 73.2 mg/dL | TG ([…], time 28 day): 162 mg/dL | TP ([…], time 28 day): 5.9 g/dL | gamma-GTP ([…], time 28 day): 0.4 IU/L
